Assay results as given in paper PMC12632398 (bioRxiv, 2025).
Non-standard residues stand in square brackets, D forms with d. No end group written: not given here. Dap = NC[C@H](N)C(=O)O

Columns and labels:
HEK293 cells = experiment: Cell viability, CellTiter Glo 2.0, HEK293; type: cell-based; settings: 100 μM, 12 hours, CellTiter Glo 2.0, three independent experiments
[1] = tested on: Cells that express the HaloTag protein; settings: CAPA; ratio of CP50 to that of JQ-1-Ct
HaloTag protein in cells = experiment: Time-resolved CAPA; type: cell-based; settings: 5μM MP1 and 1.62μM JQ1; reproduced in two independent experiments
[2] = tested on: MCF-7 breast cancer cells; experiment: Cell viability assay for MCF-7, CellTiter Glo 2.0; type: cell-based; settings: MCF-7 cells, 48 h; positive control compared with MP23

| fold higher (poorer) CP50 than JQ-1-Ct [1] [fold] | Molecule | effect on the viability of HEK293 cells (HEK293 cells) | kinetics of HaloTag protein alkylation, time-resolved CAPA (HaloTag protein in cells) | potency relative to MP23, MCF-7 viability [2] |
| --- | --- | --- | --- | --- |
| 3.4 | [Dap]AWFK-NH2 (also: sidechain bridge or staple (positions not given here)) [MP1-Ct] | no effect | relatively rapid | – |
| – | CC(C)[C@@H](CS(=O)(=O)C(C)C)N1C(=O)[C@@](C)(CC(=O)O)C[C@H](c2cccc(Cl)c2)[C@H]1c1ccc(Cl)cc1 [Navtemadlin] | – | – | about ten-fold more potent |
